Assay: Daily oral administration of DHEA to female users of hormonal oral contraceptives
Format: in vivo, human
Details: daily oral dosage of around 50 mg
Excerpt: DHEA can be administered by different routes. Unlike various other known androgens, DHEA is orally active. […] Apart from the ability of DHEA to restore and normalize androgen levels, important significant clinical benefits have been observed on several aspects of sexual function (arousability, responsivity, genital sensation, lubrication), mood and menstrual distress symptoms.

C[C@]12CC[C@H](O)CC1=CC[C@@H]1[C@@H]2CC[C@]2(C)C(=O)CC[C@@H]12 [DHEA, 3-beta-hydroxyandrost-5-en-17-one]
estradiol levels: without increasing estradiol levels | excessively high testosterone levels or clinical symptoms of hyperandrogenicity: without causing excessively high testosterone levels or clinical symptoms of hyperandrogenicity | normalization of free testosterone: at least 50% | normalization of total testosterone: normalizes total testosterone completely

Source: patent US10179107B2, “Tablet containing dehydroepiandrosterone (DHEA)” (PANTARHEI BIOSCIENCE B.V., priority 2011, dated 2019)
